Reference: US8759333B2, “Di-azetidinyl diamide as monoacylglycerol lipase inhibitors” (Janssen Pharmaceutica, NV, priority 2010, dated 2014)
Positions count from the first letter of the chain named.

Tests used:
[1] = biological target: T1, mutant MGL (mut-MGLL 11-313 L179S L186S) (Homo sapiens, UniProt Q99685, L169S/L176S); test: MGL Enzyme Activity Assay, purified mutant MGL, 4MU-B substrate; format: biochemical; conditions: mutant MGL 5 nM, 4MU-B 10 μM, 37° C.; read-out: MGL mutant inh IC50
T1 construct: purified mutant MGL (mut-MGLL 11-313 L179S L186S)
T1 sequence (Q99685 1-303 L169S/L176S): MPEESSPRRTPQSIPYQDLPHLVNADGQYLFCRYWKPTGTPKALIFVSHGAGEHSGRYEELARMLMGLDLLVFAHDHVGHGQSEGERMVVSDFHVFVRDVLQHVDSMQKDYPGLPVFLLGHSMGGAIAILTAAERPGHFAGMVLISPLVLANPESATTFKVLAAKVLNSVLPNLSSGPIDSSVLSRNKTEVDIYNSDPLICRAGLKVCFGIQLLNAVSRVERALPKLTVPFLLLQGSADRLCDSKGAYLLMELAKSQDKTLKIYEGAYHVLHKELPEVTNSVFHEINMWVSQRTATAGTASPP
Method in brief: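 Purified mutant MGL (5 nM final) with 10 μM 4MU-B in 20 mM PIPES pH 7.0, 150 mM NaCl, 0.001% Tween 20; compounds 17 to 0.0003 μM final. Fluorescence (ex 335/em 440 nm) followed 5 min at 37 °C; IC50 from fit of fractional activity versus inhibitor concentration.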

[2] = biological target: T2, wild type MGL (wt-MGLL 6H-11-313) (Homo sapiens, UniProt Q99685); test: MGL Enzyme Activity Assay, purified wild type MGL, 4MU-B substrate; format: biochemical; conditions: wild type MGL 5 nM, 4MU-B 10 μM, 37° C.; read-out: MGL wild type inh IC50
T2 construct: purified wild type MGL (wt-MGLL 6H-11-313); 6H (hexahistidine) (N)
T2 sequence (Q99685 1-303): T1 sequence (Q99685 1-303 L169S/L176S) with S169L, S176L
Procedure: All rate-based assays were performed in black 384-well polypropylene PCR microplates (Abgene) in a total volume of 30 μL. […] Final compound concentrations ranged from 17 to 0.0003 μM.
The IC50 values for the following compounds were determined using Microsoft Office Excel from a fit of the equation to the concentration-response plot of the fractional activity as a function of inhibitor concentration.

MGL = biological target: T3, MGL (Rattus norvegicus, UniProt Q8R431); test: 2-AG Accumulation Assay in rat brain homogenate; format: biochemical; conditions: percent of vehicle; for activity at 10 µM: compound @10 µM, read-out: Rat Brain 2AG % VehCntrl (%) @10 µM; for activity at 1 µM: compound @1 µM, read-out: Rat Brain 2AG % VehCntrl (%) @1 µM
T3 construct: one g rat brain was homogenized using a Polytron homogenizer; from tissue; host or cells: rat brain homogenate
T3 sequence (Q8R431 1-303): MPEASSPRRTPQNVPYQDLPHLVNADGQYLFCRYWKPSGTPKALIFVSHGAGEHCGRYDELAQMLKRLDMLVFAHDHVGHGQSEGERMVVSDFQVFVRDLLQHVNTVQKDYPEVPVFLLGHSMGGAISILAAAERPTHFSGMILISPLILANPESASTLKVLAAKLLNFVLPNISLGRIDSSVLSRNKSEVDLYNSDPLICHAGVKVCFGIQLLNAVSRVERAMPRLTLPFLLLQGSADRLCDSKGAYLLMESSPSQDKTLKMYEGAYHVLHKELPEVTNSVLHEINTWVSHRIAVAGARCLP

mutant MGL = biological target: T4, mutant MGL (Homo sapiens, UniProt Q99685, L169S/L176S); test: MGL ThermoFluor Assay - Mutant; format: binding; conditions: 0.07 mg/ml mutant MGL, 100 μM ANS, pH 7.0
T4 construct: purified mutant MGL (mut-MGLL 11-313 L179S L186S)
T4 sequence (Q99685 1-303 L169S/L176S): T1 sequence (Q99685 1-303 L169S/L176S)
Procedure: The ThermoFluor (TF) assay is a 384-well plate-based binding assay that measures thermal stability of proteins^1,2. The experiments were carried out using instruments available from Johnson & Johnson Pharmaceutical Research & Development, LLC. TF dye used in all experiments was 1,8-ANS (Invitrogen: A-47). Final TF assay conditions used for MGL studies were 0.07 mg/ml of mutant MGL, 100 μM ANS, 200 mM NaCl, 0.001% Tween-20 in 50 mM PIPES (pH=7.0).
Screening compound plates contained 100% DMSO compound solutions at a single concentration. […] Columns 12 and 24 were used as DMSO reference and contained no compound. […] Following compound dispension, protein and dye solutions were added to achieve the final assay volume of 3 μL.
Bar-coded assay plates were robotically loaded onto a thermostatically controlled PCR-type thermal block and then heated from 40 to 90° C. degrees at a ramp-rate of 1° C./min for all experiments. Fluorescence was measured by continuous illumination with UV light (Hamamatsu LC6), supplied via fiber optics and filtered through a band-pass filter (380-400 nm; >60D cutoff). Fluorescence emission of the entire 384-well plate was detected by measuring light intensity using a CCD camera (Sensys, Roper Scientific) filtered to detect 500±25 nm, resulting in simultaneous and independent readings of all 384 wells. A single image with 20-sec exposure time was collected at each temperature, and the sum of the pixel intensity in a given area of the assay plate was recorded vs temperature and fit to standard equations to yield the Tm^1. • 1.
The Kd values for certain compounds of Formula (I) were determined from a fit of the equation to the concentration-response plot of the fractional activity as a function of […]. For some experiments, quantitative NMR spectroscopy (qNMR) was used to measure concentration of the initial 100% DMSO compound solutions and, using the same fitting method, qKd values were determined.

| Compound | IC50 [1] [nM] | IC50 [2] [nM] | activity at 10 µM (MGL) [%] | Kd (mutant MGL) [nM] | activity at 1 µM (MGL) [%] |
| --- | --- | --- | --- | --- | --- |
| O=C(NC1CN(C2CN(C(=O)c3ccc(Cc4ccccc4)cc3)C2)C1)c1nccs1 [Cpd 10, N-{1′-[(4-Benzylphenyl)carbonyl]-1,3′-biazetidin-3-yl}-1,3-thiazole-2-carboxamide] | 15 | 70 | 659 |  |  |
| O=C(NC1CN(C2CN(C(=O)c3ccc(Cc4ccc(C(F)(F)F)cc4)cc3)C2)C1)c1nccs1 [Cpd 16, N-[1′-({4-[4-(Trifluoromethyl)benzyl]phenyl}carbonyl)-1,3′-biazetidin-3-yl]-1,3-thiazole-2-carboxamide] | 32 | < 5 | 123 |  |  |
| CN(C(=O)c1cscn1)C1CN(C2CN(C(=O)c3cc4ccc(C(F)(F)F)cc4s3)C2)C1 [Cpd 48, N-Methyl-N-(1′-{[6-(trifluoromethyl)-1-benzothiophen-2-yl]carbonyl}-1,3′-biazetidin-3-yl)-1,3-thiazole-4-carboxamide] | 8120 | 12900 |  | > 31000 |  |
| O=C(NC1CN(C2CN(C(=O)c3ccc4c(ccn4-c4ccc(F)c(F)c4)c3)C2)C1)c1cscn1 [Cpd 54, N-(1′-{[1-(3,4-Difluorophenyl)-1H-indol-5-yl]carbonyl}-1,3′-biazetidin-3-yl)-1,3-thiazole-4-carboxamide] |  | 5 |  |  | 315 |
| O=C(NC1CN(C2CN(C(=O)c3ccc4c(ccn4-c4ccc(F)cc4F)c3)C2)C1)c1nccs1 [Cpd 55, N-(1′-{[1-(2,4-Difluorophenyl)-1H-indol-5-yl]carbonyl}-1,3′-biazetidin-3-yl)-1,3-thiazole-2-carboxamide] |  | 5 |  |  | 353 |
| O=C(NC1CN(C2CN(C(=O)c3ccc4c(ccn4-c4ccc(F)c(F)c4)c3)C2)C1)c1nccs1 [Cpd 57, N-(1′-{[1-(3,4-Difluorophenyl)-1H-indol-5-yl]carbonyl}-1,3′-biazetidin-3-yl)-1,3-thiazole-2-carboxamide] |  | 7 |  |  | 424 |
| Cc1cc(-c2cccc(C(F)(F)F)c2)ccc1C(=O)N1CC(N2CC(NC(=O)c3nccs3)C2)C1 [Cpd 58, N-(1′-{[3-Methyl-3′-(trifluoromethyl)biphenyl-4-yl]carbonyl}-1,3′-biazetidin-3-yl)-1,3-thiazole-2-carboxamide] |  | 8 |  | 66.6 | 157 |
| O=C(NC1CN(C2CN(C(=O)c3ccc(-c4ccc(C(F)(F)F)cc4)cc3F)C2)C1)c1nccs1 [Cpd 59, N-(1′-{[3-Fluoro-4′-(trifluoromethyl)biphenyl-4-yl]carbonyl}-1,3′-biazetidin-3-yl)-1,3-thiazole-2-carboxamide] |  | 10 |  |  | 265 |
| O=C(NC1CN(C2CN(C(=O)c3ccc4c(ccn4-c4ccc(F)cc4F)c3)C2)C1)c1cscn1 [Cpd 60, N-(1′-{[1-(2,4-Difluorophenyl)-1H-indol-5-yl]carbonyl}-1,3′-biazetidin-3-yl)-1,3-thiazole-4-carboxamide] |  | 11 |  |  | 273 |
| Cc1cn(-c2ccc(F)cc2)c2ccc(C(=O)N3CC(N4CC(NC(=O)c5nccs5)C4)C3)cc12 [Cpd 62, N-(1′-{[1-(4-Fluorophenyl)-3-methyl-1H-indol-5-yl]carbonyl}-1,3′-biazetidin-3-yl)-1,3-thiazole-2-carboxamide] |  | 15 |  |  | 334 |
| Cc1cc(-c2ccc(C(F)(F)F)cc2)ccc1C(=O)N1CC(N2CC(NC(=O)c3nccs3)C2)C1 [Cpd 63, N-(1′-{[3-Methyl-4′-(trifluoromethyl)biphenyl-4-yl]carbonyl}-1,3′-biazetidin-3-yl)-1,3-thiazole-2-carboxamide] |  | 29 |  |  | 185 |
| Cc1c(C(=O)N2CC(N3CC(NC(=O)c4nccs4)C3)C2)sc2cc(Br)ccc12 [Cpd 65, N-{1′-[(6-Bromo-3-methyl-1-benzothiophen-2-yl)carbonyl]-1,3′-biazetidin-3-yl}-1,3-thiazole-2-carboxamide] |  | < 5 |  |  | 324 |
| Cc1c(C(=O)N2CC(N3CC(NC(=O)c4nccs4)C3)C2)sc2cc(-c3ccccc3)ccc12 [Cpd 66, N-{1′-[(3-Methyl-6-phenyl-1-benzothiophen-2-yl)carbonyl]-1,3′-biazetidin-3-yl}-1,3-thiazole-2-carboxamide] |  | < 5 |  |  | 399 |
| O=C(c1ccc2cc(-c3ccccc3)ccc2c1)N1CC(N2CC(N3Cc4ccccc4C3=O)C2)C1 [Cpd 69, 2-{1′-[(6-Phenylnaphthalen-2-yl)carbonyl]-1,3′-biazetidin-3-yl}-2,3-dihydro-1H-isoindol-1-one] | 8 | < 5 | 600 |  |  |
| O=C(c1ccc2c(-c3ccccc3)cccc2c1)N1CC(N2CC(N3Cc4ccccc4C3=O)C2)C1 [Cpd 97, 2-{1′-[(5-Phenylnaphthalen-2-yl)carbonyl]-1,3′-biazetidin-3-yl}-2,3-dihydro-1H-isoindol-1-one] | < 5 | < 5 | 518 |  |  |
| O=C(c1cc2ccc(-c3ccccc3)cc2s1)N1CC(N2CC(N3Cc4ccccc4C3=O)C2)C1 [Cpd 98, 2-{1′-[(6-Phenyl-1-benzothiophen-2-yl)carbonyl]-1,3′-biazetidin-3-yl}-2,3-dihydro-1H-isoindol-1-one] | < 5 | < 5 | 613 |  |  |
| Cc1cc(-c2cccc(C(F)(F)F)c2)ccc1C(=O)N1CC(N2CC(N3Cc4scnc4C3=O)C2)C1 [Cpd 104, 5-(1′-{[3-Methyl-3′-(trifluoromethyl)biphenyl-4-yl]carbonyl}-1,3′-biazetidin-3-yl)-5,6-dihydro-4H-pyrrolo[3,4-d][1,3]thiazol-4-one] |  | 66 |  | 215 |  |
| Cc1cc(-c2ccc(C(F)(F)F)cc2)ccc1C(=O)N1CC(N2CC(N3Cc4scnc4C3=O)C2)C1 [Cpd 105, 5-(1′-{[3-Methyl-4′-(trifluoromethyl)biphenyl-4-yl]carbonyl}-1,3′-biazetidin-3-yl)-5,6-dihydro-4H-pyrrolo[3,4-d][1,3]thiazol-4-one] |  | 887 |  | 3640 |  |
| O=C(c1ccc2c(ccn2-c2ccc(C(F)(F)F)cc2)c1)N1CC(N2CC(N3Cc4scnc4C3=O)C2)C1 [Cpd 106, 5-[1′-({1-[4-(Trifluoromethyl)phenyl]-1H-indol-5-yl}carbonyl)-1,3′-biazetidin-3-yl]-5,6-dihydro-4H-pyrrolo[3,4-d][1,3]thiazol-4-one] |  | < 5 |  |  | 414 |
